According to PubChem BioAssay (NCI):
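Each compound was tested at five concentrations against cells in 96-well plates for 48 hours. TGI denotes the concentration required for complete inhibition of growth.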

Columns and labels:
Experiment in all cases: NCI-60 cell line screen, 48 h
[1] = system: OVCAR-5 ovarian
[2] = system: NCI-H23 lung
[3] = system: K-562 leukemia
[4] = system: CCRF-CEM leukemia
[5] = system: SF-295 CNS
[6] = system: SW-620 colon
[7] = system: NCI-H460 lung
[8] = system: ACHN renal
[9] = system: NCI-H226 lung
[10] = system: CAKI-1 renal
[11] = system: MALME-3M melanoma
[12] = system: HOP-92 NSCLC
[13] = system: OVCAR-3 ovarian
[14] = system: HCT-15 colon
[15] = system: 786-0 renal
[16] = system: M19-MEL melanoma
[17] = system: IGROV1 ovarian
[18] = system: HT29 colon
[19] = system: KM12 colon
[20] = system: MOLT-4 leukemia
[21] = system: A549 NSCLC
[22] = system: OVCAR-8 ovarian
[23] = system: HCC-2998 colon
[24] = system: TK-10 renal
[25] = system: SK-OV-3 ovarian
[26] = system: LXFL 529 NSCLC
[27] = system: NCI-H522 lung
[28] = system: U251 CNS
[29] = system: SK-MEL-2 melanoma
[30] = system: SNB-19 CNS
[31] = system: UACC-62 melanoma
[32] = system: SF-539 CNS
[33] = system: LOX IMVI melanoma
[34] = system: M14 melanoma
[35] = system: KM20L2 colon
[36] = system: SF-268 CNS
[37] = system: XF 498 CNS
[38] = system: UACC-257 melanoma
[39] = system: DLD-1 colon
[40] = system: HOP-62 NSCLC
[41] = system: RPMI-8226 leukemia
[42] = system: EKVX NSCLC
[43] = system: SNB-75 CNS
[44] = system: COLO 205 colon
[45] = system: DMS 114 small cell lung
[46] = system: HCT-116 colon
[47] = system: OVCAR-4 ovarian
[48] = system: SR leukemia
[49] = system: SNB-78 CNS
[50] = system: SK-MEL-28 melanoma
[51] = system: HL-60(TB) leukemia
[52] = system: SK-MEL-5 melanoma
[53] = system: UO-31 renal

Work on `NC(=O)NC1C(C(=O)O)N(Cc2ccccc2)C(=O)N1Cc1ccccc1` (stereo not drawn) yielded a TGI [1] greater than 100 µM, a TGI [2] greater than 100 µM and a TGI [3] greater than 100 µM. It also gave a TGI [4] greater than 100 µM, a TGI [5] greater than 100 µM and a TGI [6] greater than 100 µM. For the same compound, the TGI [7] was greater than 100 µM, the TGI [8] was greater than 100 µM and the TGI [9] was greater than 100 µM. It also gave a TGI [10] greater than 100 µM, a TGI [11] greater than 100 µM and a TGI [12] greater than 100 µM. For the same compound, the TGI [13] was greater than 100 µM, the TGI [14] was greater than 100 µM and the TGI [15] was greater than 100 µM. It also gave a TGI [16] greater than 100 µM, a TGI [17] greater than 100 µM and a TGI [18] greater than 100 µM. The TGI [19] was greater than 100 µM, the TGI [20] was 10.9 µM and the TGI [21] was greater than 100 µM. For the same compound, the TGI [22] was greater than 100 µM, the TGI [23] was greater than 100 µM and the TGI [24] was greater than 100 µM. It also gave a TGI [25] greater than 100 µM, a TGI [26] greater than 100 µM and a TGI [27] greater than 100 µM. It also gave a TGI [28] greater than 100 µM, a TGI [29] greater than 100 µM and a TGI [30] greater than 100 µM. It also gave a TGI [31] greater than 100 µM, a TGI [32] greater than 100 µM and a TGI [33] greater than 100 µM. For the same compound, the TGI [34] was greater than 100 µM, the TGI [35] was greater than 100 µM and the TGI [36] was greater than 100 µM. It also gave a TGI [37] greater than 100 µM, a TGI [38] greater than 100 µM and a TGI [39] greater than 100 µM. It also gave a TGI [40] greater than 100 µM, a TGI [41] greater than 100 µM and a TGI [42] greater than 100 µM. For the same compound, the TGI [43] was greater than 100 µM, the TGI [44] was greater than 100 µM and the TGI [45] was greater than 100 µM. It also gave a TGI [46] greater than 100 µM, a TGI [47] greater than 100 µM and a TGI [48] greater than 100 µM. It also gave a TGI [49] greater than 100 µM, a TGI [50] greater than 100 µM and a TGI [51] greater than 100 µM. The TGI [52] was greater than 100 µM and the TGI [53] was greater than 100 µM.
